These results are taken from US20220008437A1, “Use of prostaglandin E1 methyl ester in manufacture of vasodilator” (XI'AN LIBANG ZHAOXIN BIOTECHNOLOGY CO., LTD., priority 2018, published 2022).

Read-outs that look alike come from different tables or passages of the source.

Data set [1] deals with ADP-induced platelet aggregation. The data set is described as follows: anti-platelet aggregation test in vitro (platelet-rich plasma, ADP inducer). The following applies: for inhibition at 100 µM: Rattus norvegicus, Platelet, 10 min, after 10 minutes of incubation, read-out: inhibition rate on ADP-induced platelet aggregation; for onset of anti-platelet aggregation effect after addition to PRP: incubation 0 min onward, FIG. 1. Format: cell-based, SD rats. The method, then: The Effect of the Prostaglandin E1 Methyl Ester of the Disclosure in the Anti-Platelet Aggregation Test In Vitro.
When healthy adult SD rats were anesthetized by intraperitoneal injection of 10% chloral hydrate, fresh whole blood was collected from the abdominal aorta and added to a centrifuge tube anticoagulated with 3.8% sodium citrate solution, and centrifuged at 900 rpm for 10 minutes to remove the upper platelet-rich plasma (PRP) for use. The tube having PRP removed was further centrifuged at 4000 rpm for 10 minutes, and the upper clarified plasma (PPP) was removed for use. In the experiment, Techlink model LBY-NJ4 4-channel platelet aggregator was used to determine the anticoagulant efficacy of each compound.
Into a sample cup containing 300 μL of PRP, 2 μL of 100 μM prostaglandin E1, prostaglandin E1 methyl ester of example 1, Compound 2 of Example 2 and methanol (solvent) were first added. After incubated for different periods (0, 1, 2, 4, 7, 10, 15 min), 20 μL of aggregation inducer 180 μM ADP solution was added. The aggregation rate of each sample was measured, and the inhibitory rate of the compound on ADP-induced platelet aggregation was calculated.
Inhibition rate %=(solvent aggregation rate−compound aggregation rate)/solvent aggregation rate×100%

The target in the next data set is T1, hDP1 (Homo sapiens, UniProt Q13258).
T1 sequence (Q13258 1-359): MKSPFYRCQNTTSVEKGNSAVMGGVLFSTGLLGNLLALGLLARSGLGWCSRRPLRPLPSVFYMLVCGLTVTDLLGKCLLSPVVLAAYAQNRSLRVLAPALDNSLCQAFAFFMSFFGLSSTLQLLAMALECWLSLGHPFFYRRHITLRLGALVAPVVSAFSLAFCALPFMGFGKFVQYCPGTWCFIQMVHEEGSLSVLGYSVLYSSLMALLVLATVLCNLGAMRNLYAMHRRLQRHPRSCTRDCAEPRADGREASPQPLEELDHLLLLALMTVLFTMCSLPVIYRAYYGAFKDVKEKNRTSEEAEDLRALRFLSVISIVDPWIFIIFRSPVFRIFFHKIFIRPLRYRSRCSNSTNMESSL
In words: radioligand ([3H] Prostaglandin D2) competitive receptor binding assay, DP receptor affinity in vitro. As to conditions: Test Concentration 100 nM; [3H] PGD2 radioligand; read-out: Inhibition rate. From the text: Affinity Test of DP Receptor Target In Vitro.
The radioligand ([3H] Prostaglandin D2 (PGD2)) competitive receptor binding assay was used to evaluate the affinity of the test compound with the DP receptor.

Data set [2] deals with isolated rabbit blood vessels. The data set is described as follows: vasodilation test in vitro, isolated aortic ring specimens. The following applies: isolated rabbit thoracic aortic rings, cumulative addition 0.05-25.6 nM, read-out: diastolic efficacy EC50. Format: cell-based, New Zealand white rabbits. The source says:
The Effect of the Prostaglandin E1 Methyl Ester of the Disclosure in the Vasodilation Test In Vitro
In the experiment, rabbits were selected to prepare isolated aortic ring specimens: New Zealand white rabbits, male, weighing (2.5±0.3) kg. The rabbit was stunned with a blunt instrument, fixed on the rabbit dissecting table, and the thoracic aorta was quickly separated, and placed in a petri dish filled with saturated Kerbs solution (containing NaCl 6.9 g, KCl 0.35 g, MgSO4.7H2O 0.29 g, KH2PO4 0.16 g, NaHCO32.1 g, CaCl2) 0.28 g, glucose 2 g per 1000 mL) at 37° C. and continuously introduced with mixed gas (95% O2, 5% CO2). The remaining blood in the blood vessel was squeezed out, and the peripheral fat and connective tissue were carefully peeled off, and it was cut into 0.5 cm long arterial rings for use. […]
BL-420S biological function experiment system (Chengdu Techman Technology) was used to record the variation of vascular ring tension. After the vascular ring contraction was stable, prostaglandin E1 and the compounds of the Examples were accumulatively added to successively increase the final mass concentration of prostaglandin E1 in the bath tube to 0.05, 0.1, 0.2, 0.4, 0.8, 1.6, 3.2, 6.4, 12.8, 25.6 nM, and the diastolic efficacies of the vascular ring were recorded.

Data set [3] concerns human umbilical vein endothelial cells (HUVEC). The data set is described as follows: HUVEC proliferation, MTT detection. The following applies: 1-100 nM, incubated 24 hours, compared with unmedicated wells. The format is cell-based. Here is the method: Frozen human umbilical vein endothelial cells (HUVEC) were resuscitated and placed in low-sugar DMEM medium with 10% (V/V) FBS, and 100 U/L penicillin and 0.1 g/L streptomycin were added. It was cultured artificially in an environment of 5% CO2 and 95% air at a temperature of 37° C. A fresh medium was replaced every three days. When the cell density reached 70-80%, the digestion solution (0.25% trypsin/0.02EDTA) was used to harvest the cells. After the cells were resuspended, they were seeded in a 96-well plate with a density of 5×10^3 per well. After 1 day of culture, 1-100 nM of prostaglandin methyl ester was added and incubated for 24 hours for MTT detection.

For another data set, the system named is mouse scleroderma model. In words: mouse scleroderma model (bleomycin subcutaneously). The format is in vivo, Balb/c mice. As to conditions: for Skin thickness / Collagen content: osmotic pump 28 days; for Skin thickness: inferior vena cava; for Collagen content: skin. Here is the method:
Therapeutic Effect of Prostaglandin E1 Methyl Ester in Mouse Scleroderma Model In this experiment, 56 Balb/c mice weighing 22-25 g were randomly divided into 7 groups: normal group, model group, vehicle group, prostaglandin E1 high-dose group and prostaglandin E1 low-dose group, and prostaglandin E1 methyl ester high-dose group and prostaglandin E1 methyl ester low-dose group. Model preparation: the clothing hair on the central area of the mice was shaved, the normal group was injected with 0.1 ml PBS subcutaneously on the back, and the other groups were injected with 0.1 ml of 0.2 mg/ml bleomycin subcutaneously, once a day for three weeks. […] Prostaglandin E1 high and low-dose groups were loaded with 28 μg and 14 μg of drugs respectively; prostaglandin E1 methyl ester high and low-dose groups were also loaded with 28 μg and 14 μg of drugs respectively; solvent group was not loaded with drugs. […] The administration was started at the same time as the model was created. Index detection: After the administration, the animals were sacrificed, and skin and lung sections of the injection site were made, and HE stained. The histological changes were observed, and the skin (dermis) thickness was measured; and the photoelectric colorimetry was used to determine the content of hydroxyproline and protein in the skin to infer the content of collagen.

Data set [4] is described as follows: distribution in rat skin tissue (total radiation value). The following applies: 200 μg [3H]-labelled drug via osmotic pump over 3 days, inferior vena cava. Here is the method:
Distribution of Prostaglandin E1 Methyl Ester in Rat Skin Tissue
In this experiment, 12 male SD rats weighing 250-280 g were randomly divided into two groups (n=6): prostaglandin E1 group and prostaglandin E1 methyl ester group. Osmotic pumps (model 1003D, ALZA Corporation, Canada) containing 100 μl of drug in DMSO were used. The drug was released at a constant rate, and the drug release cycle was 3 days. They were loaded with 200 μg of [^3H] prostaglandin E1 and [^3H] prostaglandin E1 methyl ester respectively. […] After the administration, the animals were sacrificed, skin tissues were taken (the same position for each animal), weighed, and the total radiation value was measured.

[5] abbreviates: 2 μL of 100 μM compound in 300 μL PRP.

On to `CCCCC[C@H](O)/C=C/[C@H]1[C@H](O)CC(=O)[C@@H]1CCCCCCC(=O)OCC` [Compound 2], for which the inhibition (usually the percentage by which the read-out fell short of the control) at 100 µM in data set [1] (setting [5]) is 51.9%. For the same compound, in data set [1], the “onset of anti-platelet aggregation effect after addition to PRP” value (“onset” below) is listed as “does not take effect immediately”.

Regarding `CCCCCC(O)/C=C/C1C(O)CC(=O)C1CCCCCCC(=O)OC` (stereo not drawn) [prostaglandin E1 methyl ester], on hDP1, the inhibition at 0.1 µM is 78%. In data set [1] (setting [5]), the inhibition at 100 µM was determined as 43.7%. Besides, the “duration of anticoagulant effect relative to prostaglandin E1” value in data set [1] (compared with prostaglandin E1) stood at 2 times. Further, the “onset” value in data set [1] is given as “take effect immediately”. The concentration giving a half-maximal response (EC50) (usually the midpoint of the concentration-response curve) in data set [2] (Oryctolagus cuniculus) is 1.09 nM. Besides, the “proliferation of vascular endothelial cells” value in data set [3] is listed as “significant effect of promoting the proliferation of vascular endothelial cells”. Moreover, the “lung tissue histology (alveolar septum thickening, inflammatory cell infiltration)” value in the data set with mouse scleroderma model (HE stained lung sections, compared with prostaglandin E1 group) is “slightly better than the prostaglandin E1 group”. The Skin thickness with mouse scleroderma model (high-dose 1 ug/day) is on record as 21.35 ± 2.11 μm; with mouse scleroderma model (low-dose 0.5 ug/day), 24.66 ± 2.54 μm. For the same compound, the Collagen content with mouse scleroderma model (high-dose 1 ug/day) is given as 467.52 ± 141.08 mg/L; in the data set on mouse scleroderma model (low-dose 0.5 ug/day), 588.62 ± 127.41 mg/L.

As for `CCCCC[C@H](O)/C=C/[C@H]1[C@H](O)CC(=O)[C@@H]1CCCCCCC(=O)O` [prostaglandin E1, Prostaglandin E1], the “inhibition rate on ADP-induced platelet aggregation” value in data set [1] (after 4 minutes of incubation, 2 μL of 100 μM compound in 300 μL PRP) was found to be 4.93%. The “onset” value in data set [1] is reported as “take effect immediately”. For the same compound, in data set [2], the concentration giving a half-maximal response (EC50) was found to be 9.77 nM. Besides, in the data set on mouse scleroderma model (high-dose 1 ug/day), the Skin thickness is reported as 29.12 ± 2.46 μm and the Collagen content worked out at 879.66 ± 128.92 mg/L. Also, in the data set on mouse scleroderma model (low-dose 0.5 ug/day), the Skin thickness worked out at 32.59 ± 3.03 μm and the Collagen content came out at 947.99 ± 214.86 mg/L. The Skin tissue concentration in data set [4] is 45.1 ± 7.5 ng (radiatione quivalent)/g.
